pIC50, pKd: −log10 of the molar value.
Each compound was assayed against PD-1/PD-L1 interaction (Homo sapiens (Human), UniProt Q9NZQ7) (assay: PD-1/PD-L1 Binding Assay kit (Cisbio), HTRF). Conditions: 8-10 concentrations, read-out: IC50 of inhibition of PD-1/PD-L1 interaction.
Sequence of PD-1/PD-L1 interaction (Q9NZQ7 19-238): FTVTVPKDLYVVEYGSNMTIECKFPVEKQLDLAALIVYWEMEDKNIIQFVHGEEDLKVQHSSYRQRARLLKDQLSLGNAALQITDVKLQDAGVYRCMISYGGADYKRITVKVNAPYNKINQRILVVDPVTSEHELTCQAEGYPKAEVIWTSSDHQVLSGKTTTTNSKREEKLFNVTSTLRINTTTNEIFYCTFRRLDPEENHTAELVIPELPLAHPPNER

pIC50 | SMILES
6.97 | COc1cc(NCc2cccc(-c3ccccc3)c2C)c(Cl)cc1CN[C@H](CO)C(=O)O [Compound 11]
5.34 | COc1nc(NCc2cccc(-c3ccccc3)c2C)ccc1CN[C@H](CO)C(=O)O [Compound 12]
5.58 | COc1cc(NCc2cccc(-c3ccccc3)c2C)ncc1CN[C@H](CO)C(=O)O [Compound 15]
7.64 | Cc1cc(CN[C@@H](CO)CC(=O)O)c(OCc2cncc(C#N)c2)cc1NCc1cccc(-c2ccccc2)c1C [Compound 18]
6.78 | Cc1cc(CN[C@H](CO)C(=O)O)c(OCc2cccc(C#N)c2)cc1NCc1cccc(-c2ccccc2)c1C [Compound 19]
6.46 | CCOc1cc(NCc2cccc(-c3ccccc3)c2C)c(C)cc1CN[C@H](CO)C(=O)O [Compound 20]
7.77 | Cc1cc(CNC[C@@H](O)CC(=O)O)c(OCc2cncc(C#N)c2)cc1NCc1cccc(-c2ccccc2)c1C [Compound 22]
7.44 | Cc1cc(CN2C[C@@H](O)CC2=O)c(OCc2cncc(C#N)c2)cc1NCc1cccc(-c2ccccc2)c1C [Compound 23]
5.87 | Cc1cc(CN[C@H](CCO)C(=O)O)c(OCc2cncc(C#N)c2)cc1NCc1cccc(-c2ccccc2)c1C [Compound 24]
7.33 | Cc1cc(CN[C@H](CC(N)=O)C(=O)O)c(OCc2cncc(C#N)c2)cc1NCc1cccc(-c2ccccc2)c1C [Compound 25]
< 4.00 | Cc1c(CN(C)c2ccc(CN[C@H](CO)C(=O)O)c(OCc3cccc(C#N)c3)c2)cccc1-c1ccccc1 [Compound 26]
6.72 | Cc1c(NCc2ccc(CN[C@H](CO)C(=O)O)c(OCc3cncc(C#N)c3)c2)cccc1-c1ccccc1 [Compound 28]
6.21 | Cc1cc(CN[C@H](CO)C(=O)O)c(OCc2cncc(C#N)c2)cc1NCc1cccc(-c2ccccc2)c1C(F)(F)F [Compound 29]
5.53 | N#Cc1cncc(COc2cc(NCc3cccc(-c4ccccc4)c3C(F)(F)F)ccc2CN[C@H](CO)C(=O)O)c1 [Compound 30]
6.20 | N#Cc1cccc(COc2cc(NCc3cccc(-c4ccccc4)c3Br)ccc2CNC(CO)C(=O)O)c1 (stereo not drawn) [Compound 33]
6.49 | Cc1c(COc2ccc(CN[C@H](CO)C(=O)O)c(OCc3cncc(C#N)c3)c2)cccc1-c1ccccc1 [Compound 37, reference compound]
5.98 | Cc1c(C#N)cncc1COc1cc(OCc2cccc(-c3ccccc3)c2C)ccc1CN[C@H](CO)C(=O)O [Compound 38, reference compound]

The compounds below were run on Human peripheral blood mononuclear cells (PBMCs) (assay: Promotion of IFN-γ secretion in PBMCs treated with anti-CD3/anti-CD28 and PDL1/FC fusion protein (ELISA)). Conditions: compound 0.1 μM, hPD-L1 10.0 μg/mL, 72 h.
Format: cell-based
Experimental: Human peripheral blood mononuclear cells (PBMCs) were isolated from 10-15 ml of whole blood of healthy volunteers using experimental human lymphocyte separation medium (TBD sciences). The cells were washed twice with normal saline and resuspended in buffer (RPMI 1640 complete medium containing 10% FBS, SIGMA) to count the cell density. The PBMCs were dispersed and placed in a 96-well plate, 1×10^5 cells and 50 μL of buffer per well. Anti-CD3 antibody (SIGMA) and anti-CD28 antibody (SIGMA) were mixed at a ratio of 1:1 to obtain an antibody mixture. The antibody mixture was added to the wells to ensure that the final concentration of antibody was 0.8 μg/mL. At the same time, PDL1/FC fusion protein (SINO BIOLOGICAL) was added to reach a final concentration of 10.0 μg/mL, and the compound to be tested was diluted with buffer and added to the wells to reach a final concentration of 0.1 μM or 1 μM. The mixed system was incubated at 37° C. and 5% CO2 for 72 h. The supernatant was collected, and the expression level of IFN-γ was measured by ELISA MAXTM Human IFN-γ Standard Kit (BioLegend), and the increase rate was calculated. Increase rate (%)=(expression amount of compound treatment−expression amount of PDL1 treatment)/expression amount of PDL1 treatment×100%

SMILES | IFN-γ | Increase rate of IFN-γ expression vs PDL1 treatment
COc1nc(OCc2cccc(-c3ccccc3)c2C)ccc1CNCCNC(C)=O [BMS202] | 35100 pg/mL | 64.8%

Same assay, conditions: compound 1.0 μM, hPD-L1 10.0 μg/mL, 72 h

SMILES | IFN-γ | Increase rate of IFN-γ expression vs PDL1 treatment
COc1nc(OCc2cccc(-c3ccccc3)c2C)ccc1CNCCNC(C)=O [BMS202] | 39100 pg/mL | 83.6%

Each compound was assayed against human PD-L1 (Homo sapiens (Human), UniProt Q9NZQ7) (assay: Biofilm interferometry (BLI, OctetRED) binding to human PD-L1/AVI). Conditions: 1:1 binding model.
Experimental: In the experiment, the instrument OctectRED of Fortebio Company based on biofilm interferometry (BLI) technology was used to capture human PD-L1/AVI with SA chips. The concentration of antigen PD-L1/AVI was diluted to 10 μg/mL with running buffer (PBS+0.02% Tween-20+2% DMSO), and the loading time was 300 s; similarly, the analyte was also diluted to the corresponding concentrations (20 nM, 10 nM, 5 nM, 2.5 nM, 1.25 nM, 0.625 nM, 0.3125 nM) with running buffer in gradient manner, and a buffer blank control group was set at the same time. The binding time of human PD-L1/AVI to the analyte was 180 s, and the dissociation time was 300 s; the chip was regenerated with 10 mM glycine HCl, pH 1.7 solution and repeated 5-second pulse for 3 times. The data were fitted to a 1:1 binding model to determine the equilibrium dissociation constant KD.

Sequence of human PD-L1 (Q9NZQ7 19-290): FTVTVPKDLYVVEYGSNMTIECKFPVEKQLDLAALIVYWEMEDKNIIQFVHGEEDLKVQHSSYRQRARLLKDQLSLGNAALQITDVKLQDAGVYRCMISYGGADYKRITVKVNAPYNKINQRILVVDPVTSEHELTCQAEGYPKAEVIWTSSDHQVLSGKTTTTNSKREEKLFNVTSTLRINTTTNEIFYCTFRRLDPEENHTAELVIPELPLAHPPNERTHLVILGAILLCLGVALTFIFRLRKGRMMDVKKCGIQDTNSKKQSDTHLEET

pKd | kon | SMILES
9.29 | 1.29e+06 M⁻¹ s⁻¹ | COc1cc(NCc2cccc(-c3ccccc3)c2C)c(Cl)cc1CN[C@H](CO)C(=O)O [Compound 11]

Same assay, conditions: 1:1 binding model, read-out: Kdis

koff | SMILES
0.000664 s⁻¹ | COc1cc(NCc2cccc(-c3ccccc3)c2C)c(Cl)cc1CN[C@H](CO)C(=O)O [Compound 11]

Source: US20230303494A1, “BENZYLAMINE DERIVATIVE, PREPARATION METHOD THEREFOR AND USE THEREOF” (ACADEMY OF MILITARY MEDICAL SCIENCES, priority 2020, published 2023)
